We go through one molecule from patent US20230393170A1, “IN SITU MECHANICAL CHARACTERIZATION OF A SAMPLE STRAIN” (BOARD OF REGENTS OF THE UNIVERSITY OF NEBRASKA, priority 2020, published 2023).

The test system of this assay is A431 cell pair cell-cell junction. Description: Displacement-controlled stretch test of a single cell pair treated with contractility modulators. In kind it is cell-based. The source says:
To apply strain to the cell-cell junction, the test platform was placed with deposited cells under the AFM integrated with an inverted microscope. An AFM probe with a through-hole drilled at the front end using a focused ion beam (FIB) is positioned above the micropillar on Island 2 and then lowered to capture it within the through-hole. With this, displacement was applied and displacement rates were tried to investigate the mechanical behavior of the cell-cell junction with obtained stress-strain curves (as discussed below with reference to FIG. 12).
The cell pair was treated with cellular contractility modulators, RhoA Activator I. CN01, and myosin II inhibitor: blebbistatin (Bleb), to examine the impact of actomyosin activity on the mechanical behavior of the cell pair under mechanical stress. Stress-strain curves collected at 0.5% s^−1 strain rate show a clear contrast between samples treated with CN01, Bleb, and DMSO control. […] The stress-strain curves were then analyzed using the constitutive model. […] The increase (decrease) in both η and E2 by CN01 (Bleb) is consistent with the enhanced (reduced) stress fiber formation.
Zyxin staining was performed to visualize the focal adhesion points between cells and the structure. After fixing the cells (see above), the anti-zyxin antibody (Sigma) with a ratio of 1:250 with PBS was added to the sample and refrigerated for 24 hours. The solution was then removed, and the sample was washed with PBS. PBS was replaced by Goat anti-Rabbit IgG (H+L), Superclonal™ Recombinant Secondary Antibody, Alexa Fluor 647 (Thermofisher) and incubated for 1 hour at 37° C. Finally, the sample was washed with PBS and the actin and nuclei staining protocol were performed. Pharmacological treatments modulating cell contractility included 3 μM blebbistatin (Bleb) (Sigma-Aldrich) for 2 h and 1 unit/ml Rho Activator I (CN01; Cytoskeleton, Inc., Denver, CO) for 30 min.
A modified version of MATLAB digital image correlation (DIC) was used to analyze the frames from the stretch test. The first frame was considered as the reference and the rest of the frames were compared to the reference frame to calculate the displacement of each island. A region of interest with markers within the region was defined for both islands. Then, the MATLAB code calculated the markers' new coordinates with respect to the first frame, from which the displacement of the islands was calculated. The force is defined by the Island 1 displacement multiplied by its stiffness, and the stress is acquired by dividing the force by the junction cross-section (approximately 120 μm^2). The strain is then calculated as the difference between the islands' displacements divided by the cell-cell junction's initial length (approximately 20 μm).
Each stretch test was recorded with a screen recorder software (Camtasia) and the movie was divided into frames that were analyzed with a customized DIC-based program to calculate each island's movement. In this method, a region of interest is defined and, within this region, a few markers are placed. The higher the number of markers, the better the resolution of the calculated displacement is. Then, when the coordinates of these markers change, a corresponding red marker appears (FIGS. 12A and 12B). In the first frame, both initial and displaced positions of markers are completely overlapped so just red markers are shown. […] The strain is calculated by dividing the difference of both islands' displacements by the initial length […]. […]

[1] abbreviates: 0.5% s^-1 strain rate, fit of stress-strain curves.

Entries after “also recorded” stand apart in the source; their conditions may differ.

With `Cc1ccc2c(c1)C(=O)C1(O)CCN(c3ccccc3)C1=N2` (centres unmarked) [Bleb, blebbistatin], for the setting “0.5% s^-1 (100 nm/s) strain rate”, the “rupture of the cell-cell adhesion junction” value is recorded as “ruptured at the initial stages”. Also, the “overall stress level compared with controls” value (0.5% s^-1 strain rate (100 nm/s), CN01 1 unit/ml 30 min, Bleb 3 μM 2 h, vs DMSO control) was “reduces the stress accumulation; also recorded: stress level was low compared to other conditions”. Moreover, under setting [1], the “Membrane stiffness, E1 (MSLS model fit)” value is recorded as “stays the same for all conditions”; the “elastic moduli of the intracellular components, E2 (MSLS model fit)” value is “reduces them”; the “viscosity, η (MSLS model fit)” value is listed as “reduces them”.
